CN102503942A, “一种氟喹诺酮衍生物及其制备和药物应用” (Individual, priority 2011, dated 2012)
Values after ≈ are worked out from the molar mass of the structure shown.

Tested on: Staphylococcus aureus, ATCC 25923 (金黄色葡萄球菌,ATCC 25923)
Test: MIC by broth microdilution (微量肉汤稀释法)
Format: cell-based
Conditions: ATCC25923, 16 h, MH broth, pH 7.2~7.4, 35℃, 16~20 h

MIC [µg/mL] | SMILES
< 0.3 | COc1c(N2CCN3CCCCC3C2)c(F)cc2c(=O)c(C(=O)O)cn(C3CC3)c12 (centres unmarked) [例子1, 7-(八氢-2H-吡啶并[1,2-a]吡嗪基)-1-环丙基-6-氟-1,4-二氢-8-甲氧基-4-氧代-3-喹啉羧酸]
< 0.1 | COc1c(N2CCN3CCCC3C2)c(F)cc2c(=O)c(C(=O)O)cn(C3CC3)c12 (centres unmarked) [例子2, 7-(六氢吡咯并[1,2-a]吡嗪基)-1-环丙基-6-氟-1,4-二氢-8-甲氧基-4-氧代-3-喹啉羧酸]
< 0.3 | COc1c(N2CCN3CCNCC3C2)c(F)cc2c(=O)c(C(=O)O)cn(C3CC3)c12 (centres unmarked) [例子3, 7-(八氢-2H-吡嗪并[1,2-a]吡嗪基)-1-环丙基-6-氟-1,4-二氢-8-甲氧基-4-氧代-3-喹啉羧酸]
< 0.1 | COc1c(N2CCN3CCNC3C2)c(F)cc2c(=O)c(C(=O)O)cn(C3CC3)c12 (centres unmarked) [例子4, 7-(六氢咪唑并[1,2-a]吡嗪基)-1-环丙基-6-氟-1,4-二氢-8-甲氧基-4-氧代-3-喹啉羧酸]
0.3 (≈ 0.83 µM) | CC1COc2c(N3CCN(C)CC3)c(F)cc3c(=O)c(C(=O)O)cn1c23 (centres unmarked) [氧氟沙星, reference compound]
